Assay results: publication PMC12224983, “Isoquercitrin Alleviates Diabetic Nephropathy by Inhibiting STAT3 Phosphorylation and Dimerization” (Advanced Science, 2025)

Biological target: T1, signal transducer and activator of transcription 3 (STAT3) (Homo sapiens, UniProt P40763)
T1 construct: Wild-type STAT3 proteins
Experiment: SPR (BIAcore T200, STAT3 immobilized on CM5 chip); supported by pull-down, proteome microarray and CETSA
Type: binding

T1 sequence (P40763 2-770): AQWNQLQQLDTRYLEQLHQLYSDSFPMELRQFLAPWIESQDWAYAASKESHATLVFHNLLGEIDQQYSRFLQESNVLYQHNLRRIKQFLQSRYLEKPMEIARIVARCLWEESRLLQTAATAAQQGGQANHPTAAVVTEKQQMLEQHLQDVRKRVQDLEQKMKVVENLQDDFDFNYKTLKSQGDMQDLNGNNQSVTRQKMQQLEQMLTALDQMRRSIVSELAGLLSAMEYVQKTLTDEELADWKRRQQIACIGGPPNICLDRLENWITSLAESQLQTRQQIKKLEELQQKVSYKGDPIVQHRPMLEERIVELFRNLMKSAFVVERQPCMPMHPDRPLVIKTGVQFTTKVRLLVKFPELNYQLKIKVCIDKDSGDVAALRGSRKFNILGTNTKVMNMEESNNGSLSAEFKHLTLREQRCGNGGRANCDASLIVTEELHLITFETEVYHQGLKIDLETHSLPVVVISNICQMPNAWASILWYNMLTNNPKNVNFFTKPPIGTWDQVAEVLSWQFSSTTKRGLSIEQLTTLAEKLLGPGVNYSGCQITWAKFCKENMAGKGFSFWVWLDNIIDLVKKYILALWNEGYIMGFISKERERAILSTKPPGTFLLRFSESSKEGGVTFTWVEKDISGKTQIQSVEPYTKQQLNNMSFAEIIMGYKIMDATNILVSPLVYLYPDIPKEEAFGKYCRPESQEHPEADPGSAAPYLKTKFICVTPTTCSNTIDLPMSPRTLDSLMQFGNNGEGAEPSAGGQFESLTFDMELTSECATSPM

In the case of `O=c1c(O[C@@H]2O[C@H](CO)[C@@H](O)[C@H](O)[C@H]2O)c(-c2ccc(O)c(O)c2)oc2cc(O)cc(O)c12` [Isoquercitrin], the Kd is reported as 2860 nM.
